# In patent US11458123B2 (Arvinas, Inc., priority 2016, dated 2022):
# Tested on: tau protein
# Test: Tau protein in vitro degradation assay (Western blot, Tau-13 antibody)
# Assay type: cell-based, human
# Settings: SK-N-SH cells; 72 hours of incubation; tested at 1000 nM, 300 nM and 100 nM
# Description: Tau Protein In Vitro Degradation Assay
# To determine effect of PROTACs on tau protein degradation SK-N-SH cells were seeded in a 24-well tissue culture-treated plate for at least 18-hours prior to compound addition. Tau PROTACs were evaluated for tau degradation by lysing the cells in lysis buffer with protease inhibitors following a 72-hour incubation with tau PROTACs at 1000 nM, 300 nM and 100 nM for Table 1 and 300 nM, 100 nM, 33 nM and 11 nM for Table 2. Cell lysates were run on standard SDS-PAGE gels, and tau levels were detected by Western blotting using Tau-13 antibody from Abcam (Cambridge, UK) that binds to all forms of human tau.
row,Structure (SMILES),"Activity* (highest amount of degradation observed at any dosage, as tau protein remaining)"
1,"Cc1ncsc1-c1ccc([C@H](C)NC(=O)[C@@H]2C[C@@H](O)CN2C(=O)[C@@H](NC(=O)COCCOCCOCC(=O)N2CCN(c3ccn4c(n3)nc3ccccc34)CC2)C(C)(C)C)cc1 [Compound 17, (2S,4R)-1-((S)-14-(4-(benzo[4,5]imidazo[1,2-a]pyrimidin-2-yl)piperazin-1-yl)-2-(tert-butyl)-4,14-dioxo-6,9,12-trioxa-3-azatetradecanoyl)-4-hydroxy-N—((S)-1-(4-(4-methylthiazol-5-yl)phenyl)ethyl)pyrrolidine-2-carboxamide]",C (>80% tau protein remaining after 72 hours of incubation with the test compound)
2,"Cc1ncsc1-c1ccc([C@H](C)NC(=O)[C@@H]2C[C@@H](O)CN2C(=O)[C@@H](NC(=O)COCCOCCOCCOCC(=O)N2CCN(c3ccn4c(n3)nc3ccccc34)CC2)C(C)(C)C)cc1 [Compound 18, (2S,4R)-1-((S)-17-(4-(benzo[4,5]imidazo[1,2-a]pyrimidin-2-yl)piperazin-1-yl)-2-(tert-butyl)-4,17-dioxo-6,9,12,15-tetraoxa-3-azaheptadecanoyl)-4-hydroxy-N—((S)-1-(4-(4-methylthiazol-5-yl)phenyl)ethyl)pyrrolidine-2-carboxamide]",C (>80% tau protein remaining after 72 hours of incubation with the test compound)
3,"Cc1ncoc1-c1ccc([C@H](C)NC(=O)[C@@H]2C[C@@H](O)CN2C(=O)[C@@H](NC(=O)COCCOCCOCCN2CCN(c3ccn4c(n3)nc3ccccc34)CC2)C(C)(C)C)cc1 [Compound 19, (2S,4R)-1-((S)-14-(4-(benzo[4,5]imidazo[1,2-a]pyrimidin-2-yl)piperazin-1-yl)-2-(tert-butyl)-4-oxo-6,9,12-trioxa-3-azatetradecanoyl)-4-hydroxy-N—((S)-1-(4-(4-methyloxazol-5-yl)phenyl)ethyl)pyrrolidine-2-carboxamide]",C (>80% tau protein remaining after 72 hours of incubation with the test compound)
4,"Cc1ncoc1-c1ccc([C@H](C)NC(=O)[C@@H]2C[C@@H](O)CN2C(=O)[C@@H](NC(=O)COCCOCCOCCOCCN2CCN(c3ccn4c(n3)nc3ccccc34)CC2)C(C)(C)C)cc1 [Compound 20, (2S,4R)-1-((S)-17-(4-(benzo[4,5]imidazo[1,2-a]pyrimidin-2-yl)piperazin-1-yl)-2-(tert-butyl)-4-oxo-6,9,12,15-tetraoxa-3-azaheptadecanoyl)-4-hydroxy-N—((S)-1-(4-(4-methyloxazol-5-yl)phenyl)ethyl)pyrrolidine-2-carboxamide]",C (>80% tau protein remaining after 72 hours of incubation with the test compound)
5,"Cc1ncoc1-c1ccc([C@H](C)NC(=O)[C@@H]2C[C@@H](O)CN2C(=O)[C@@H](NC(=O)COCCOCCOCC(=O)N2CCN(c3ccn4c(n3)nc3ccccc34)CC2)C(C)(C)C)cc1 [Compound 21, (2S,4R)-1-((S)-14-(4-(benzo[4,5]imidazo[1,2-a]pyrimidin-2-yl)piperazin-1-yl)-2-(tert-butyl)-4,14-dioxo-6,9,12-trioxa-3-azatetadecanoyl)-4-hydroxy-N—((S)-1-(4-(4-methyloxazol-5-yl)phenyl)ethyl)pyrrolidine-2-carboxamide]",C (>80% tau protein remaining after 72 hours of incubation with the test compound)
6,"Cc1ncoc1-c1ccc([C@H](C)NC(=O)[C@@H]2C[C@@H](O)CN2C(=O)[C@@H](NC(=O)COCCOCCOCCOCC(=O)N2CCN(c3ccn4c(n3)nc3ccccc34)CC2)C(C)(C)C)cc1 [Compound 22, (2S,4R)-1-((S)-17-(4-(benzo[4,5]imidazo[1,2-a]pyrimidin-2-yl)piperazin-1-yl)-2-(tert-butyl)-4,17-dioxo-6,9,12,15-tetraoxa-3-azaheptadecanoyl)-4-hydroxy-N—((S)-1-(4-(4-methyloxazol-5-yl)phenyl)ethyl)pyrrolidine-2-carboxamide]",C (>80% tau protein remaining after 72 hours of incubation with the test compound)
7,"Cc1ncsc1-c1ccc(CNC(=O)[C@@H]2C[C@@H](O)CN2C(=O)[C@@H](NC(=O)COCCOCCOCCOCCN2CCN(c3ccn4c(n3)nc3ccccc34)CC2)C(C)(C)C)cc1 [Compound 23, (2S,4R)-1-((5)-17-(4-(benzo[4,5]imidazo[1,2-a]pyrimidin-2-yl)piperazin-1-yl)-2-(tert-butyl)-4-oxo-6,9,12,15-tetraoxa-3-azaheptadecanoyl)-4-hydroxy-N-(4-(4-methylthiazol-5-yl)benzyl)pyrrolidine-2-carboxamide]",C (>80% tau protein remaining after 72 hours of incubation with the test compound)
8,"Cc1ncsc1-c1ccc(CNC(=O)[C@@H]2C[C@@H](O)CN2C(=O)[C@@H](NC(=O)COCCOCCOCCOCC(=O)N2CCN(c3ccn4c(n3)nc3ccccc34)CC2)C(C)(C)C)cc1 [Compound 24, (2S,4R)-1-((5)-17-(4-(benzo[4,5]imidazo[1,2-a]pyrimidin-2-yl)piperazin-1-yl)-2-(tert-butyl)-4,17-dioxo-6,9,12,15-tetraoxa-3-azaheptadecanoyl)-4-hydroxy-N-(4-(4-methylthiazol-5-yl)benzyl)pyrrolidine-2-carboxamide]",C (>80% tau protein remaining after 72 hours of incubation with the test compound)
9,"O=C1CCC(N2C(=O)c3cccc(NCCOCCOCCOCCN4CCN(c5ccn6c(n5)nc5ccccc56)CC4)c3C2=O)C(=O)N1 (centres unmarked) [Compound 25, 4-((2-(2-(2-(2-(4-(benzo[4,5]imidazo[1,2-a]pyrimidin-2-yl)piperazin-1-yl)ethoxy)ethoxy)ethoxy)ethyl)amino)-2-(2,6-dioxopiperidin-3-yl)isoindoline-1,3-dione]",C (>80% tau protein remaining after 72 hours of incubation with the test compound)
10,"O=C1CCC(N2C(=O)c3cccc(NCCOCCOCCOCCOCCN4CCN(c5ccn6c(n5)nc5ccccc56)CC4)c3C2=O)C(=O)N1 (centres unmarked) [Compound 26, 4-((14-(4-(benzo[4,5]imidazo[1,2-a]pyrimidin-2-yl)piperazin-1-yl)-3,6,9,12-tetraoxatetradecyl)amino)-2-(2,6-dioxopiperidin-3-yl)isoindoline-1,3-dione]",C (>80% tau protein remaining after 72 hours of incubation with the test compound)
11,"Cc1ncsc1-c1ccc(CNC(=O)[C@@H]2C[C@@H](O)CN2C(=O)[C@@H](NC(=O)COCCOCCOc2ccc3nc(-c4ccc(N(C)C)cc4)ccc3c2)C(C)(C)C)cc1 [Compound 27, (2S,4R)-1-((S)-2-(2-(2-(2-(2-(4-(dimethylamino)phenyl)quinolin-6-yloxy)ethoxy)ethoxy)acetamido)-3,3-dimethylbutanoyl)-4-hydroxy-N-(4-(4-methylthiazol-5-yl)benzyl)pyrrolidine-2-carboxamide]",C (>80% tau protein remaining after 72 hours of incubation with the test compound)
